ChEMBL document CHEMBL3407449, “Synthesis, anticancer and radiosensitizing evaluation of some novel sulfonamide derivatives” (Eur J Med Chem, 2015)

What was measured:
HepG2 [1] = assay: Cytotoxicity against human HepG2 cells assessed as surviving fraction ratio at 25 uM after 48 hrs by SRB assay relative to control; type: functional
HepG2 [2] = assay: Cytotoxicity against human HepG2 cells assessed as surviving fraction ratio at 50 uM after 48 hrs by SRB assay relative to control; type: functional
HepG2 [3] = assay: Cytotoxicity against human HepG2 cells assessed as surviving fraction ratio at 5 uM after 48 hrs by SRB assay relative to control; type: functional
HepG2 [4] = assay: Cytotoxicity against human HepG2 cells assessed as surviving fraction ratio after 48 hrs by SRB assay relative to control; type: functional, cell-based
HepG2 [5] = assay: Cytotoxicity against human HepG2 cells assessed as surviving fraction ratio at 12.5 uM after 48 hrs by SRB assay relative to control; type: functional
HepG2 [6] = assay: Cytotoxicity against human HepG2 cells assessed as surviving fraction ratio at 12.5 uM incubated for 2 hrs prior to 8Gy gamma-irradiation measured after 48 hrs by ELISA reader relative to control; type: functional
HepG2 [7] = assay: Cytotoxicity against human HepG2 cells assessed as surviving fraction ratio incubated for 2 hrs prior to 8Gy gamma-irradiation measured after 48 hrs by ELISA reader relative to control; type: functional, cell-based; conditions: HepG2, light or radiation study
HepG2 [8] = assay: Cytotoxicity against human HepG2 cells assessed as surviving fraction ratio at 25 uM incubated for 2 hrs prior to 8Gy gamma-irradiation measured after 48 hrs by ELISA reader relative to control; type: functional
HepG2 [9] = assay: Cytotoxicity against human HepG2 cells assessed as surviving fraction ratio at 50 uM incubated for 2 hrs prior to 8Gy gamma-irradiation measured after 48 hrs by ELISA reader relative to control; type: functional
HepG2 [10] = assay: Cytotoxicity against human HepG2 cells assessed as surviving fraction ratio at 5 uM incubated for 2 hrs prior to 8Gy gamma-irradiation measured after 48 hrs by ELISA reader relative to control; type: functional
[11] = Homo sapiens, HepG2, 48 h, read-out: IC50

Compound	Ratio (HepG2 [1])	Ratio (HepG2 [2])	Ratio (HepG2 [3])	IC50 (HepG2 [4]; [11]) [µM]	Ratio (HepG2 [5])	Ratio (HepG2 [6])	IC50 (HepG2 [7]) [µM]	Ratio (HepG2 [8])	Ratio (HepG2 [9])	Ratio (HepG2 [10])	IC50 (HepG2 [4]; hepg2)
C/C(=N\NC(=O)CC#N)c1ccc(NS(=O)(=O)c2ccc(C)cc2)cc1	0.349	0.293	0.837	26	0.53						
C/C(=N/n1c(N)c(C#N)c(-c2ccc([N+](=O)[O-])cc2)c(C#N)c1=O)c1ccc(NS(=O)(=O)c2ccc(C)cc2)cc1	0.331	0.408	0.951	31.5	0.635	0.603	23.5	0.345	0.352	0.439	
CC(=O)c1ccc(NS(=O)(=O)c2ccccc2)cc1	0.464	0.417	0.891	35.3	0.719						
C/C(=N/NC(=O)/C(C#N)=C/N(C)C)c1ccc(NS(=O)(=O)c2ccc(C)cc2)cc1	0.546	0.378	1.141	37.8	0.877						
Cc1ccc(S(=O)(=O)Nc2ccc(C(=O)/C=C/c3ccc(Cl)cc3)cc2)cc1	0.591	0.402	2.16	43.3	1.478						
C/C(=N\NC(=O)CC#N)c1ccc(NS(=O)(=O)c2ccccc2)cc1	0.361	0.242	0.881	28	0.778						
C/C(=N/NC(=O)C(C#N)C(=S)S)c1ccc(NS(=O)(=O)c2ccc(C)cc2)cc1 (stereo not given)	0.291	0.414	0.344	11	0.229	0.206	5	0.189	0.158	0.245	
Cc1ccc(S(=O)(=O)Nc2ccc(C(=O)/C=C/c3ccccc3)cc2)cc1	1.017	0.529	2.385		2.032						Not Active
Cc1ccc(S(=O)(=O)Nc2ccc(-c3cc(-c4ccc([N+](=O)[O-])cc4)n(C(=S)NN)n3)cc2)cc1	0.507	0.53	1.766	45.3	1.189						
C/C(=N/n1c(N)cc(N)c(C#N)c1=O)c1ccc(NS(=O)(=O)c2ccccc2)cc1	0.312	0.321	0.748	25.5	0.556	0.194	11.5	0.299	0.34	0.395	
Cc1ccc(S(=O)(=O)Nc2ccc(C(/C=C/c3ccc([N+](=O)[O-])cc3)=N\O)cc2)cc1	1.351	0.632	1.723		1.769						Not Active
Cc1ccc(S(=O)(=O)Nc2ccc(-c3cc(-c4ccc([N+](=O)[O-])cc4)n(C(N)=S)n3)cc2)cc1	1.078	0.5	1.907		1.759						Not Active
Cc1ccc(S(=O)(=O)Nc2ccc(-c3cc(-c4ccc([N+](=O)[O-])cc4)n(-c4ccccc4)n3)cc2)cc1	0.923	0.536	2.085		1.841						Not Active
C/C(=N\NC(=O)c1sc(N)c(C#N)c1N)c1ccc(NS(=O)(=O)c2ccccc2)cc1	0.239	0.274	0.869	23.3	0.456	0.386	18.3	0.253	0.322	0.526	
Cc1ccc(S(=O)(=O)Nc2ccc(C(=O)/C=C/c3ccc([N+](=O)[O-])cc3)cc2)cc1	0.392	0.495	0.476	26	0.348	0.451	20.5	0.368	0.249	0.558	
C/C(=N\NC(=O)c1sc(N)c(C#N)c1N)c1ccc(NS(=O)(=O)c2ccc(C)cc2)cc1	0.39	0.323	0.571	21.8	0.383	0.227	5.8	0.105	0.174	0.291	
Cc1ccc(/C=C/C(=O)c2ccc(NS(=O)(=O)c3ccc(C)cc3)cc2)cc1	0.781	0.489	1.931	49.8	1.616						
Cc1ccc(S(=O)(=O)Nc2ccc(C(=O)/C=C/c3ccc(Br)cc3)cc2)cc1	0.43	0.445	0.584	30.3	0.505	0.471	26.8	0.394	0.408	0.591	
Cc1ccc(S(=O)(=O)Nc2ccc(-c3cc(-c4ccc([N+](=O)[O-])cc4)[nH]c(=O)n3)cc2)cc1	0.732	0.481	1.619	46.3	0.95						
Cc1ccc(S(=O)(=O)Nc2ccc(-c3cc(-c4ccc([N+](=O)[O-])cc4)[nH]n3)cc2)cc1	0.522	0.508	1.772	44.8	1.197						
CC(=O)c1ccc(NS(=O)(=O)c2ccc(C)cc2)cc1	0.547	0.367	1.048	35.8	0.726						
Cc1ccc(S(=O)(=O)Nc2ccc(C(=O)/C=C/c3ccc(F)cc3)cc2)cc1	0.383	0.551	1.461	39.3	0.497						
COc1ccc(-c2c(C#N)c(N)n(/N=C(/C)c3ccc(NS(=O)(=O)c4ccc(C)cc4)cc3)c(=O)c2C#N)cc1	0.363	0.375	0.984	31.8	0.696						
C/C(=N/NC(=O)c1sc2c(c1N)CCCC2)c1ccc(NS(=O)(=O)c2ccc(C)cc2)cc1	0.331	0.277	0.868	25.5	0.528	0.524	20	0.329	0.229	0.521	
C/C(=N\n1c(N)cc(N)c(C#N)c1=O)c1ccc(NS(=O)(=O)c2ccc(C)cc2)cc1	0.577	0.385	0.937	37	0.761						
Cc1ccc(S(=O)(=O)Nc2ccc(-c3cc(-c4ccc([N+](=O)[O-])cc4)[nH]c(=S)n3)cc2)cc1	0.486	0.398	1.066	36.5	0.805						
